Read-outs that look alike come from different tables or passages of the source.
How the values were obtained:
[1] = molecular target: T1, recombinant CDK7/cyclin H/MAT1 (CAK) trimeric complex (Homo sapiens, UniProt P50613); assay: Covalent binding site evaluation by mass spectrometry; settings: incubated 1 hour with CAK complex, Arg-C or Arg-C/trypsin digestion
T1 construct: purchased Thermo Fisher Scientific PV3868
Experimental: The recombinant CAK complex (CDK7/cyclin H/MAT1; Thermo Fisher Scientific, PV3868) was incubated with Q901 or DMSO for 1 hour at room temperature (RT), and the reaction complexes were resolved by SDS–polyacrylamide gel electrophoresis (PAGE). The bands corresponding to CDK7 were excised for in-gel digestion. Denaturation, reduction, and alkylation were performed using 8 M urea, TCEP, and iodoacetamide at RT, followed by Arg-C digestion (1:100 Arg-C:protein ratio, at 37°C for 18 hours) and Arg-C/trypsin digestion (1:100 Arg-C:protein ratio and 1:50 trypsin:protein ratio, at 37°C for 18 hours). The extracted peptides were loaded and eluted using a high-performance liquid chromatography (HPLC) system and then separated through a linear gradient (3 to 60% mobile phase B in 120 min) at a flow rate of 0.3 μl/min using EASY-Spray HPLC Columns (75 μm/500 mm) (Thermo Fisher Scientific, ES903) at 40°C and introduced into an Orbitrap Exploris 240 LC-MS/MS System (Thermo Fisher Scientific, BRE725535) in positive ion mode and run in data-independent acquisition (DIA) mode. Data acquisition was performed over a mass/charge ratio (m/z) range of 390 to 1010, and peak integrations for fragment ions of the most intense charge state of the doubly carbamidomethylated Cys^312-containing peptide were analyzed using the Skyline software 24.1 (Seattle, WA, USA). […]

H292 xenograft = assay: H292 cell line-derived xenograft efficacy; format: in vivo, BALB/c nude mice; settings: for tumor growth inhibition (TGI): by day 28
Experimental: BALB/c nude mice were purchased from the Shanghai SIPPR/BK Laboratory Animal Co. Ltd. (Shanghai, China). For in vivo efficacy studies, HCT116 cells or H292 cells were resuspended in PBS and Matrigel (1:1) and implanted subcutaneously. When tumors reached an average size of 117 mm^3 (HCT116) or 140 mm^3 (H292), mice were randomized into four groups (n = 8 per group) and treated with Q901 (3 or 10 mg/kg, intraperitoneally once daily), T-DXd (10 mg/kg, single intravenous administration on day 0), SG (3 mg/kg, single intravenous administration on days 1 and 8), or a combination thereof. Tumor volumes were measured twice weekly after randomization in two dimensions, using a caliper. The TGI was calculated for each group using the formula: TGI (%) = [1 − (Ti − T0)/(Vi − V0)] × 100, where Ti is the average tumor volume of the treatment group on the given day, T0 is the average tumor volume of the treatment group on the day when the treatment was started, Vi is the average tumor volume of the vehicle control group on the same day with Ti, and V0 is the average tumor volume of the vehicle group on the day of treatment start. Statistical significance was calculated using a two-way analysis of variance (ANOVA) followed by Tukey’s multiple comparison test in GraphPad Prism 10.4.1.

[2] = molecular target: T2, recombinant human CDK7/cyclin H/MNAT1 (Homo sapiens, UniProt P50613); assay: LANCE Ultra TR-FRET CDK7 kinase assay (cell-free enzymatic assay); format: biochemical; settings: eight-point dilution, top 3000 nM, read-out: IC50 against CDK7
T2 construct: His-tag; purchased Invitrogen PR6749B
Experimental: CDK7 kinase activity was measured using a LANCE Ultra TR-FRET kinase assay (Revvity, formerly PerkinElmer, Waltham, MA, USA) according to the manufacturer’s protocol. Briefly, recombinant human CDK7/cyclin H/MNAT1 His-tag protein (Invitrogen, PR6749B) was incubated with compounds (Q901, Q901R, and QS0551508) in kinase buffer in a 384-well format. The assay used a ULight-labeled peptide substrate and a europium-labeled anti-phospho antibody for time-resolved fluorescence resonance energy transfer (TR-FRET) detection.
TR-FRET signals were measured using an EnVision multimode plate reader (Revvity, EnVision 2105 Alpha) with LANCE/DELFIA detection settings.
Compounds were tested using an eight-point serial dilution (top concentration: 3000 nM, 1:4 dilution). Signals were normalized to DMSO-treated controls to calculate residual kinase activity (%), and dose-response curves were generated using GraphPad Prism 10.4.1.

MCF-7 cells = assay: MCF-7 cell viability (ATP Lite system); format: cell-based; settings: Homo sapiens, MCF7, read-out: IC50 MCF-7 cell growth
Experimental: Fig. 2. Q901 alters RNAPII phosphorylation and transcriptional activity. (A) MCF-7 cells were treated with Q901 at the indicated concentrations for 72, 96, or 120 hours. Cell viability was measured using the ATP Lite system. Inhibition (%) was plotted against the log-transformed Q901 concentration (μM) (n = 3 to 4). Data represent means ± SD. (B and C) RNAPII ChIP-seq was performed following treatment with 100 nM Q901 for the indicated duration. (B) Volcano plot of pan RNAPII ChIP-seq signals after Q901 treatment [n = 2; blue dot indicates P value ≤ 0.05 and log2 fold change (log2FC) ≤ −0.58; red dot indicates P value ≤ 0.05 and log2FC ≥ 0.58]. […] CDK7 ChIP-seq was performed with 100 nM Q901 for the indicated durations.
Cells were seeded into 96-well plates and treated with compounds at the indicated concentrations and time points. After incubation, cell viability was measured using either CellTiter-Glo luminescent cell viability assay (Promega, Madison, WI, USA, G7572) according to the manufacturer’s instructions. Plates were equilibrated to RT for 30 min before adding 50 μl of CellTiter-Glo reagent to each well. Luminescence was measured using the EnVision Multi Label Reader (PerkinElmer, Waltham, MA, USA). Dose-response curves were fitted using a nonlinear regression model with a sigmoidal dose-response function in GraphPad Prism 10.4.1. The absolute IC5_0 values were calculated using the dose-response curves generated in XL-fit 5 (IDBS Software, Woking, UK) and fitted with the four-parameter logistic equation: fit = A + ((B − A)/{1 + [(C/x)^D]}), where A and B represent the bottom and top plateaus of the curve, respectively, C is the IC5_0 value, x is the compound concentration, and D is the Hill slope.

CDK7 = molecular target: T3, CDK7 (Homo sapiens, UniProt P50613); assay: Radiometric protein kinase assay (PanQinase; 410-kinase panel and 28 CDK titration); format: biochemical; settings: ATP at apparent ATP-Km
T3 construct: purchased Reaction Biology (Freiburg, Germany), assay service
T3 sequence (P50613 whole entry): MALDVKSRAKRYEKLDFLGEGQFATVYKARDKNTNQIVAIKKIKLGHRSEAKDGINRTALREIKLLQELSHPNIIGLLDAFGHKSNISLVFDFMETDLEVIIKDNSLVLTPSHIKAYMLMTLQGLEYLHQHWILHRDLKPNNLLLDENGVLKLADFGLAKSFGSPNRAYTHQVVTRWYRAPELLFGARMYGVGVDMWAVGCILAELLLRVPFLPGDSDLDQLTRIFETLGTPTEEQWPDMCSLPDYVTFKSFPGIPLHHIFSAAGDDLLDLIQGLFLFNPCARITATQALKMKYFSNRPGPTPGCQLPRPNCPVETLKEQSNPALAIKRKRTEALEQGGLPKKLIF
T3 sequence (P51946 whole entry partner): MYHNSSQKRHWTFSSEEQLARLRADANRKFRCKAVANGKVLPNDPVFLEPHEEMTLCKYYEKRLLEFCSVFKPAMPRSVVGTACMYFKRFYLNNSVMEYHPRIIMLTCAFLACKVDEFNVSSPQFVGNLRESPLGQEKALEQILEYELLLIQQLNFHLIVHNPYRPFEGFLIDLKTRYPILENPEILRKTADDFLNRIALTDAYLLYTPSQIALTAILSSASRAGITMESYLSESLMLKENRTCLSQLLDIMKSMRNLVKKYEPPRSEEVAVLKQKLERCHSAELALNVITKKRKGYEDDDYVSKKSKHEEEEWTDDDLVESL
T3 sequence (P51948 whole entry partner): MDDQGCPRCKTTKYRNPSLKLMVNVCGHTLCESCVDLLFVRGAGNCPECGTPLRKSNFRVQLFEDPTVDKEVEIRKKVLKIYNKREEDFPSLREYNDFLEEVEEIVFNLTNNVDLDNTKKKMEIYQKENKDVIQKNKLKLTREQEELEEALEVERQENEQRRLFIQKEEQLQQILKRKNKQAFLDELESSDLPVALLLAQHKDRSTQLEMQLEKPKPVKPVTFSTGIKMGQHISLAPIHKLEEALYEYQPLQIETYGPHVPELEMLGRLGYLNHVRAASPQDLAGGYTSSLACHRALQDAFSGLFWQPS
Experimental: (§1) A radiometric protein kinase assay service was provided by Reaction Biology (Freiburg, Germany) to measure the kinase activity of 410 protein kinases and 28 CDKs.
In the kinase inhibition assay, the residual activity for each compound was calculated using the following formula: Residual activity (%) = 100 × [(signal of compound − low control)/(high control − low control)]. The selectivity score of the compound at the tested concentrations was calculated for residual activity < 50%, that is, inhibition of >50%. The selectivity score for a particular compound at a particular concentration was calculated using the following formula: Selectivity score = (count of data points < 50%)/(total number of data points).
(§2) In the 28 CDK titration assay, the residual activity and IC50 values of the compound were calculated using the Quattro Workflow V3.1.1 (Quattro Research GmbH, Munich, Germany). The ATP concentration used in each kinase reaction was set to the apparent ATP-Km value. Dose-response curve fitting was performed using a four-parameter logistic regression model in GraphPad Prism 10.4.1 (GraphPad Software, Boston, MA, USA).

CDK13 = molecular target: T4, CDK13 (Homo sapiens, UniProt Q14004); assay: Radiometric 28 CDK titration assay; format: biochemical
T4 construct: purchased Reaction Biology (Freiburg, Germany), assay service
Experimental: as §1, §2

CDK8 = molecular target: T5, CDK8 (Homo sapiens, UniProt P49336); assay: Radiometric 28 CDK titration assay; format: biochemical
T5 construct: purchased Reaction Biology (Freiburg, Germany), assay service
T5 sequence (P49336 whole entry): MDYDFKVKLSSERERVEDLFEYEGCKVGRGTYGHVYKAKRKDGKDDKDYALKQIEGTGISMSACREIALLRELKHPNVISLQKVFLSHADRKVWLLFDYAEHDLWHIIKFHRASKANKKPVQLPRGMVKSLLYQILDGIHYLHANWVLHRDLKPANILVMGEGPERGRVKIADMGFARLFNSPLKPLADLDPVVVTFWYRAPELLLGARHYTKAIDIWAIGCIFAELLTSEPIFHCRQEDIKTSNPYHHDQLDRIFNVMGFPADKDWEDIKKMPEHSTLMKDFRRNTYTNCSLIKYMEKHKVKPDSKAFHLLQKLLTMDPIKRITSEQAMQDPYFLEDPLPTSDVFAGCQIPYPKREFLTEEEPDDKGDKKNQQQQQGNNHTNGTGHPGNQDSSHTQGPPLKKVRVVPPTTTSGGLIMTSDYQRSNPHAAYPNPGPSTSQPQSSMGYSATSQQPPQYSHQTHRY
T5 sequence (P24863 whole entry partner): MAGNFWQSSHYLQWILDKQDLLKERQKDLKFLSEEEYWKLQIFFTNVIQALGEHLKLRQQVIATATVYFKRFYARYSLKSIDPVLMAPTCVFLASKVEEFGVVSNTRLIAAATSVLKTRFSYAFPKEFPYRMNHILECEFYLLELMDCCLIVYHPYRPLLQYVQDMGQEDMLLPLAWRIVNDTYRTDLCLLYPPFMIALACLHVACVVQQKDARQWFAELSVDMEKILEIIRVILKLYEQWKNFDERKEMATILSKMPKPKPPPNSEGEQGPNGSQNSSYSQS
Experimental: as §1, §2

CDK12 = molecular target: T6, CDK12 (Homo sapiens, UniProt Q9NYV4); assay: Radiometric 28 CDK titration assay; format: biochemical
T6 construct: purchased Reaction Biology (Freiburg, Germany), assay service
T6 sequence (Q9NYV4 whole entry): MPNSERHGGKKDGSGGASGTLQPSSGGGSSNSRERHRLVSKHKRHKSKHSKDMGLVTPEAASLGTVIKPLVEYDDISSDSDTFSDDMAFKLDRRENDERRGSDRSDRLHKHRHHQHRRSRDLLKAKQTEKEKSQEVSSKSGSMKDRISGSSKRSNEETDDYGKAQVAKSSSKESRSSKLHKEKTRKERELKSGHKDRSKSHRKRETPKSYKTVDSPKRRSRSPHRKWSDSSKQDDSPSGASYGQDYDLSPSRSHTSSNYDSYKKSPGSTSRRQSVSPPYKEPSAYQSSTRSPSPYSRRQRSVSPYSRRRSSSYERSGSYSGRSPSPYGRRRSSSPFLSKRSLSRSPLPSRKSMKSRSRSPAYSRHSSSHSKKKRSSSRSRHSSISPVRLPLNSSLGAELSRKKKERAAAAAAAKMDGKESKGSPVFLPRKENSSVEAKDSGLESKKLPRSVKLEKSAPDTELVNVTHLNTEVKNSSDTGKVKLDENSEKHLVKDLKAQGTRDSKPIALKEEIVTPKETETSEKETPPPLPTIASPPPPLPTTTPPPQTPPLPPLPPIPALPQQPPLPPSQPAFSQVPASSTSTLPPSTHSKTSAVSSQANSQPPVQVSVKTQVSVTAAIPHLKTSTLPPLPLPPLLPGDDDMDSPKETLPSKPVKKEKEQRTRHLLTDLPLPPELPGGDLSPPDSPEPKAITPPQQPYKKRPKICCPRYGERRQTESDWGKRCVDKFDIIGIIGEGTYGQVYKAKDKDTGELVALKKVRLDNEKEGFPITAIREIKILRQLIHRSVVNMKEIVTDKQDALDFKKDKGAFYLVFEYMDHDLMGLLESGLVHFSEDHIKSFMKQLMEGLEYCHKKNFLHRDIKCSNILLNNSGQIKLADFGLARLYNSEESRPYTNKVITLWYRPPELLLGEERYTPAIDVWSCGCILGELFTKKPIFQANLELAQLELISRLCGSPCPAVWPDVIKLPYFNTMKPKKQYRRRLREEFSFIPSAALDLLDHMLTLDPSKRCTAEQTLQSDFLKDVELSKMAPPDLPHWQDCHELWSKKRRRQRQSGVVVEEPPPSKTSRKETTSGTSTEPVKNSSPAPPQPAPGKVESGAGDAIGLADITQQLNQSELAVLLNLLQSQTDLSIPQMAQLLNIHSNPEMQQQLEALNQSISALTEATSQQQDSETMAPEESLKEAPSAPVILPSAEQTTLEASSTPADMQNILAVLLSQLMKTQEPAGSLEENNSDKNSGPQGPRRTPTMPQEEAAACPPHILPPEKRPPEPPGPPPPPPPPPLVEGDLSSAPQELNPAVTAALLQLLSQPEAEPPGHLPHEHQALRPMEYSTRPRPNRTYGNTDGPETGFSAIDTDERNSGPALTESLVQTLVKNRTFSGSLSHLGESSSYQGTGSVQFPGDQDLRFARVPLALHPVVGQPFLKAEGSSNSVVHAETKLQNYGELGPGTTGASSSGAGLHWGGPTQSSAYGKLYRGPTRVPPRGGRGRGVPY
T6 sequence (O75909 whole entry partner): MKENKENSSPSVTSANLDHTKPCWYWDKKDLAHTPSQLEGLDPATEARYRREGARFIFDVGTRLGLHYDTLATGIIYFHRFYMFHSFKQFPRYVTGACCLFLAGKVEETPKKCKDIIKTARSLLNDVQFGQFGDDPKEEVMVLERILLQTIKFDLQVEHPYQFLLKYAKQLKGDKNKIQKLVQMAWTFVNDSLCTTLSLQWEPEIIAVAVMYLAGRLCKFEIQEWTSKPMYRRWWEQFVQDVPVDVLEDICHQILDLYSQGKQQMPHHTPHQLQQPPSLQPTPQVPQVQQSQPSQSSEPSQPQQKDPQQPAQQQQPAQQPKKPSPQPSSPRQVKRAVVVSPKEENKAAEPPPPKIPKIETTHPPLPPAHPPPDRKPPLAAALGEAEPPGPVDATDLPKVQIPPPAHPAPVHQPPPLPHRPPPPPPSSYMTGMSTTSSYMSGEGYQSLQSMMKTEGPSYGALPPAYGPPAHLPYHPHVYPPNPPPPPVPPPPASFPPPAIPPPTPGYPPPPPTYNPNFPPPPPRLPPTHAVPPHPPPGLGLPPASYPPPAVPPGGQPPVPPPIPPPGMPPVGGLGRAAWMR
Experimental: as §1, §2

CDK9 = molecular target: T7, CDK9 (Homo sapiens, UniProt P50750); assay: Radiometric 28 CDK titration assay; format: biochemical
T7 construct: purchased Reaction Biology (Freiburg, Germany), assay service
T7 sequence (P50750 whole entry): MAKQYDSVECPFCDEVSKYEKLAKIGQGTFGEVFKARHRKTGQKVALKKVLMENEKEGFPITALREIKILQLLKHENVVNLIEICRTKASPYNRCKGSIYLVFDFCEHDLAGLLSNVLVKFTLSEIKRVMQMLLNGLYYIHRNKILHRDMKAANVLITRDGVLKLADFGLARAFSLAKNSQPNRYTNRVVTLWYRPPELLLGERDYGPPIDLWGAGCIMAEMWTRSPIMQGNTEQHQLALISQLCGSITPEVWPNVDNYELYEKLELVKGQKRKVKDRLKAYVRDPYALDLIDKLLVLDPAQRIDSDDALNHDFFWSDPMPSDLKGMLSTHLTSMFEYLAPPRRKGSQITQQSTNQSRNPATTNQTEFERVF
T7 sequence (O60563 whole entry partner): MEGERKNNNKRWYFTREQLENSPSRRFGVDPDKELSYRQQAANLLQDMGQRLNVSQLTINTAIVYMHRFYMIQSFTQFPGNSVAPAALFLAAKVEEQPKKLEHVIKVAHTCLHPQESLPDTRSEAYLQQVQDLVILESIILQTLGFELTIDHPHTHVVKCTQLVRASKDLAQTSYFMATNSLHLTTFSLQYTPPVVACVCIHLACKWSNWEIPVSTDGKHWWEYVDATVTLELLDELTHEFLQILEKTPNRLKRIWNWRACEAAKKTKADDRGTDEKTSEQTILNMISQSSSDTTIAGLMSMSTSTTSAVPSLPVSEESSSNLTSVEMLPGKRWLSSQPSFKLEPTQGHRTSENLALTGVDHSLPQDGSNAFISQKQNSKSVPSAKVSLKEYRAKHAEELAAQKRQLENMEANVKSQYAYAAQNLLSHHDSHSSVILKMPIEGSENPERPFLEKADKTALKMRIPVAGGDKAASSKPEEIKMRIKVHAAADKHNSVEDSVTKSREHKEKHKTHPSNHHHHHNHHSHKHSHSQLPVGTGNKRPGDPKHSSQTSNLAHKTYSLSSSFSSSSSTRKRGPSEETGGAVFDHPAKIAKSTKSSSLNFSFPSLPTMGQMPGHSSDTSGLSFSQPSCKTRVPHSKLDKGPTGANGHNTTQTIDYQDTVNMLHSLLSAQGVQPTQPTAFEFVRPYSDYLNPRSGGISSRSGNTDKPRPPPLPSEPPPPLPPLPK
Experimental: as §1, §2

H292 cells = assay: H292 cell viability, single agent and combination (SynergyFinder, ATP Lite); format: cell-based; settings: 72 hours
Experimental: (§3) SynergyFinder was performed by Oncolines (Oss, Netherlands). […] The absolute IC5_0 values were determined from the dose-response curves generated in XL-fit 5 using the four-parameter logistic equation: fit = A + ((B − A)/{1 + [(C/x)^D]}), where A and B represent the bottom and top plateaus of the curve, C is the IC5_0 value, x is the compound concentration, and D is the Hill slope.

HCT116 xenograft = assay: HCT116 cell line-derived xenograft efficacy; format: in vivo, BALB/c nude mice; settings: by day 28; T-DXd 10 mg/kg single iv, Q901 10 mg/kg ip once daily
Experimental: BALB/c nude mice were purchased from the Shanghai SIPPR/BK Laboratory Animal Co. Ltd. (Shanghai, China). For in vivo efficacy studies, HCT116 cells or H292 cells were resuspended in PBS and Matrigel (1:1) and implanted subcutaneously. […] Tumor volumes were measured twice weekly after randomization in two dimensions, using a caliper. The TGI was calculated for each group using the formula: TGI (%) = [1 − (Ti − T0)/(Vi − V0)] × 100, where Ti is the average tumor volume of the treatment group on the given day, T0 is the average tumor volume of the treatment group on the day when the treatment was started, Vi is the average tumor volume of the vehicle control group on the same day with Ti, and V0 is the average tumor volume of the vehicle group on the day of treatment start. Statistical significance was calculated using a two-way analysis of variance (ANOVA) followed by Tukey’s multiple comparison test in GraphPad Prism 10.4.1.

other CDKs = assay: Radiometric 28 CDK titration assay, selectivity over other CDKs; format: biochemical; settings: ranging from 242-fold to over 1000-fold
Experimental: as §1, §2

HCT116 cells = assay: HCT116 cell viability, single agent and combination (SynergyFinder, ATP Lite); format: cell-based; settings: Homo sapiens, HCT-116; 72 hours, alone
Experimental: as §3

[3] = first regimen: SG 3 mg/kg, Q901 10 mg/kg
[4] = second regimen: SG 10 mg/kg, Q901 3 mg/kg

Compound: C=C(F)C(=O)Nc1ccc2c(-c3ccccc3CNc3nc(NC[C@H]4CCNC[C@@H]4O)nc4c(C(C)C)cnn34)nccc2c1 [Q901]
- reduction of intensity of Cys312-containing peptides (residues 310 to 329 and 310 to 318) [1]: ~99%
- tumor growth inhibition (TGI) (H292 xenograft; [3]): 80%
- tumor growth inhibition (TGI) (H292 xenograft; [4]): 61%
- IC50 [2]: 10.4 nM
- IC50 (MCF-7 cells; 72 hours): 95 nM
- IC50 (MCF-7 cells; 96 hours): 16 nM
- IC50 (MCF-7 cells; 120 hours): 5 nM
- inhibition at 1 µM (CDK7; 1 μM, 1 hour): 99%
- remaining activity at 1 µM (CDK7; 1 μM, 1 hour, read-out: residual activity value CDK7): 1%
- IC50 (CDK7; in vitro): 10 nM
- fold difference in inhibition of CDK13 compared to CDK7 (CDK13): 641 fold
- fold difference in inhibition of CDK8 compared to CDK7 (CDK8): > 1000 fold
- IC50 (CDK8; ATP at apparent ATP-Km): > 10 µM
- fold difference in inhibition of CDK12 compared to CDK7 (CDK12): 207 fold
- fold difference in inhibition of CDK9 compared to CDK7 (CDK9): 715 fold
- IC50 (H292 cells; Homo sapiens, NCI-H292, Single treatment / monotherapy): 12 nM
- tumor growth inhibition (TGI) (HCT116 xenograft): 81%
- IC50 values for other CDKs higher than that for CDK7 (other CDKs): ≥ 242 fold
- IC50 (HCT116 cells): 8.4 nM

Compound: sacituzumab govitecan [SG]
- time at which tumors showed regrowth (H292 xenograft; H292 xenograft, SG alone): > 14 days
- tumor growth inhibition (TGI) (H292 xenograft; [3]): 47%
- tumor growth inhibition (TGI) (H292 xenograft; [4]): 72%
- H292 IC50 (H292 cells; monotherapy): 500 ng/mL

From publication PMC13626057, “Sensitizing tumor response to topoisomerase I antibody-drug conjugate by selective CDK7 inhibition” (Science Advances, 2026)
